Read-outs that look alike come from different tables or passages of the source.
What was measured:
Type in all cases: cell-based, Staphylococcus aureus
S. aureus (MN8) = settings: for TSST-1 produced compared to the control: S. aureus MN8, in the presence of the compound
S. aureus FRI-1169 = settings: S. aureus FRI-1169, in the presence of triclosan
S. aureus FRI-1187 = settings: S. aureus FRI-1187, in the presence of triclosan

Compound | Reduction of Toxin (%) (S. aureus (MN8)) | reduced the amount of toxin produced (S. aureus (MN8)) | TSST-1 produced compared to the control (S. aureus (MN8)) | Reduction of Toxin (%) (S. aureus (MN8); S. aureus MN8, test compound 2 μg/mL, 24 h, vs methanol control) | TSST-1 produced compared to the control (S. aureus FRI-1169) | TSST-1 produced compared to the control (S. aureus FRI-1187) | Reduction of Toxin (%) (S. aureus (MN8); S. aureus MN8, test compound 0.01 μg/mL, 24 h, vs methanol control)
Oc1ccc(Cc2ccccc2)cc1 [4-Hydroxydiphenyl-methane, 4-hydroxydiphenyl methane] | 24% | about 24% |  |  |  |  | 
Oc1c(Cl)cc(Cl)c(Cl)c1Cc1c(O)c(Cl)cc(Cl)c1Cl [Hexachlorophene, hexachlorophene] |  |  | significantly less | 68% |  |  | 
Oc1cc(Cl)ccc1Oc1ccc(Cl)cc1Cl [Triclosan, triclosan] |  |  | significantly less |  | produced less TSST-1 | produced less TSST-1 | 88%

From US6821999B2 (priority 2001, dated 2004)
